Literature values in patent US7067320B2, “Sensor for luminescense-optical determination of an analyte” (Roche Diagnostics Operations, Inc., priority 2000, dated 2006).

Settings: not given

pKa | Compound
7.6 | Dibromoxylenol blue
6.7 | O=C1OC(c2ccc(O)c3ccccc23)(c2ccc(O)c3ccccc23)c2ccccc21 [Naphthol-phthalein]
7.1 | O=C1C=CC(=Nc2ccc(O)cc2)C=C1Cl [o-chlorophenol-indophenol]

More lines, now with the values behind:

Compound | pKa
Cc1ccc(O)c(N=Nc2c(O)cc(S(=O)(=O)O)c3ccccc23)c1 [Calmagit] | 8.0
Cc1c(C2(c3cc(C(C)C)c(O)c(Br)c3C)OS(=O)(=O)c3ccccc32)cc(C(C)C)c(O)c1Br [Bromothymol blue] | 6.7
O=S1(=O)OC(c2cc(Br)c(O)c(Br)c2)(c2cc(Br)c(O)c(Br)c2)c2ccccc21 [Bromophenol blue] | 3.8

Same assay, conditions: second value printed in the same cell

Compound | pKa
O=C1OC(c2ccc(O)c3ccccc23)(c2ccc(O)c3ccccc23)c2ccccc21 [Naphthol-phthalein] | 7.9
